Usually Ki stands for a dissociation constant, usually derived from enzyme kinetics or from competition with a known ligand. One may read the pKa as the pH at which an ionisable group is half protonated. Lower therefore signals a group that gives up its proton readily.

From PMC5858991 (Neuropharmacology, 2018) come the findings set out here.

“And” between values parts separate entries of the source, which are not always exact repeats. Equal values may be shown once. Read-outs that look alike come from different tables or passages of the source.

The target in data set [1] is T1, σ1R (Homo sapiens, UniProt Q99720). The class given is binding. The following applies: read-out: Ki ± SEM; competition vs. 2 nM [3H]-haloperidol, HEK 293T membrane.
T1 sequence (Q99720 whole entry): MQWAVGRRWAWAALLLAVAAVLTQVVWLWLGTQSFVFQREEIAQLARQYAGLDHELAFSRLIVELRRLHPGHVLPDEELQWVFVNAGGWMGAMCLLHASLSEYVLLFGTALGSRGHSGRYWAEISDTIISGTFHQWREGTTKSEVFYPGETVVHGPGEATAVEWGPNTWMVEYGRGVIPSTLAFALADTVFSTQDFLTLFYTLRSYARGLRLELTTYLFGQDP
For a further data set, the target named is σ1R homomer (Homo sapiens, UniProt Q99720). Description: Drug induced σ1R homomer BRET. The class given is cell-based. The note with it: for effect on σ1R homomer BRET signaling: 2.5-60 min. For orientation: Bioluminescence resonance energy transfer reports proximity on the nanometre scale.
Chain of σ1R homomer (Q99720 whole entry): as above
Chain of σ1R homomer (Q99720 whole entry): as above
Data set [2] concerns the target T1, σ1R. The class given is binding. The note with it: HEK 293T membrane; for Ki: read-out: Ki ± SEM, competition vs. 3 nM [3H]-(+)-pentazocine.
Data set [3] addresses σ1R (Cavia porcellus, UniProt Q60492). Description: σ1R radioligand binding in guinea pig cortex with [3H]-.
Data set [4] in a line: Experimentally determined pKa.
In data set [5] the target is T1, σ1R. The class given is binding. The note with it: for displacement kinetics of [3H]-(+)-pentazocine: membrane preparation and whole cells, 15 min of incubation.
Where [6] appears, read: single-ligand mode, σ1-NL:σ1-VN.
The mark [7] stands for this setting: read-out: Ki ± SEM, competition vs. 3 nM [3H]-(+)-pentazocine, guinea pig cortex.
Where [8] appears, read: 1 μM haloperidol or 1 μM PD144418 added prior to tested ligand.

Chain of σ1R (Cavia porcellus, UniProt Q60492) (Q60492 whole entry): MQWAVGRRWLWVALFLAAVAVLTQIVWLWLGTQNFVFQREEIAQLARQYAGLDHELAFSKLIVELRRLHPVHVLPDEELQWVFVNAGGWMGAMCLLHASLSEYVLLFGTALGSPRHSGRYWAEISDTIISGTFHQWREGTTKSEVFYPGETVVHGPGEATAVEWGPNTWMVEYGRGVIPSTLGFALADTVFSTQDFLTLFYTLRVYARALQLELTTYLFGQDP

Consider `CCCN1CCC=C(c2cc(-c3ccc(C)cc3)no2)C1` [PD144418], for which the Ki is 2.67 ± 0.578 nM on σ1R [1], 0.894 ± 0.11 nM at σ1R [2] and 0.842 ± 0.307 nM at σ1R [3] (setting [7]). In addition, the “Emax (basal subtracted BRET change)” value on σ1R homomer (setting [6]) is recorded as ~0.02. The “effect on σ1R homomer BRET signaling” value at σ1R homomer (setting [6]) was “positive dose-dependent induction of BRET signaling”.
As to `O=C(OCCN1CCOCC1)C1(c2ccccc2)CCCCC1` [PRE-084, 2-(4-morpholinethyl)1 phenylcyclohexanecarboxylate], the “effect on σ1R homomer BRET in competition mode” value (“effect … in competition mode” below) on σ1R homomer (setting [8]) was “dose-dependent effects”. For the same molecule, the “effect on σ1R homomer BRET signaling” value at σ1R homomer (setting [6]) is on record as “no detectable effects on BRET signaling”. Further, the “experimentally determined pKa” value in data set [4] is reported as 6.2. The “displacement of [3H]-(+)-pentazocine” value on σ1R [5] (membrane preparation, 15 and 120 min) is listed as 92.4–96.1%; at σ1R [5] (whole cell assay, 15 min), 60.6%; at σ1R [5] (whole cell assay, 120 min), “below 76.1%”.
Consider `CC(C)=CCN1CC[C@]2(C)c3cc(O)ccc3C[C@H]1[C@H]2C` [[^3H]-(+)-pentazocine], for which the “Bmax ± SEM” value on σ1R [2] ([3H]-(+)-pentazocine) was 2080 fmol/mg and 2080 ± 163 fmol/mg.
Turning to `COC(=O)[C@H]1[C@@H](OC(=O)c2ccccc2)C[C@@H]2CC[C@H]1N2C` [cocaine], the “effect … in competition mode” value at σ1R homomer (setting [8]) is “dose-dependent effects”. Moreover, at σ1R homomer (setting [6]), the “effect on σ1R homomer BRET signaling” value is reported as “no detectable effects on BRET signaling”. Also, on σ1R [3], the affinity, expressed as Ki, was 3710 ± 1170 nM.
In data set [4], `CC(C)=CCN1CC[C@]2(C)c3cc(O)ccc3C[C@H]1[C@H]2C` [(+)-pentazocine] showed a pKa of 9.2 to 9.3.
For the molecule `c1ccc(CCCCN2CCC(c3ccccc3)CC2)cc1` [4-PPBP], the “effect … in competition mode” value on σ1R homomer (in the presence of 1 μM PD144418) is reported as “positive BRET signals were induced”. Moreover, the “effect on σ1R homomer BRET signaling” value on σ1R homomer (setting [6]) is “positive dose-dependent induction of BRET signaling”. Moreover, at σ1R [3] (setting [7]), the Ki was determined as 0.857 ± 0.153 nM.
For the molecule `CCCN(CCC)CCc1ccc(OC)c(OCCc2ccccc2)c1` [NE-100], the “effect … in competition mode” value on σ1R homomer (setting [8]) was “dose-dependent effects”. Moreover, the “effect on σ1R homomer BRET signaling” value on σ1R homomer (setting [6]) was “no detectable effects on BRET signaling”. Besides, the Ki on σ1R [3] (setting [7]) came to 1.14 ± 0.283 nM. On σ1R [5], the “displacement kinetics of [3H]-(+)-pentazocine” value is “immediate displacement”.
With `CCCCN1[C@@H]2CC[C@H]1CC(OC(c1ccc(F)cc1)c1ccc(F)cc1)C2` (some centres unmarked) [JHW007], the results for the Ki at σ1R [1], on σ1R [2] and on σ1R [3] (setting [7]) were 1.85 ± 0.0579 nM, 0.554 ± 0.172 nM and 1.48 ± 0.289 nM, respectively. Further, on σ1R homomer (setting [8]), the “effect … in competition mode” value is “dose-dependent effects”. The “effect on σ1R homomer BRET signaling” value at σ1R homomer (setting [6]) is “no detectable effects on BRET signaling”. The “displacement kinetics of [3H]-(+)-pentazocine” value on σ1R [5] was “immediate displacement”.
